# According to the supplement of paper PMC10307832:
# How the values were obtained:
# Test in all cases: relative viability (nuclei count vs DMSO), 5 days (fraction); higher = more cells survive
# [1] = compound: Cc1ccc2nc(NCCN)c3ncc(C)n3c2c1 + CC(=O)Nc1cccc(-n2c(=O)n(C3CC3)c(=O)c3c(Nc4ccc(I)cc4F)n(C)c(=O)c(C)c32)c1 [Trametinib] (partner 0.02 µM)
# How it was run: (§1)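 Lung cancer cell lines were pin-tool dosed in 1536-well plates on the day after seeding, with either a lone drug or a fixed anchor-drug dose plus five library-drug doses (not always all listed) in √10 steps. Nuclei were counted on 4× images after 5 days. Relative viability is the ratio of treated-well to vehicle-well nuclei counts, with each value a median of duplicate plates.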
# [2] = compound: Cc1ccc2nc(NCCN)c3ncc(C)n3c2c1 + CC1(C)CCC(c2ccc(Cl)cc2)=C(CN2CCN(c3ccc(C(=O)NS(=O)(=O)c4ccc(N[C@H](CCN5CCOCC5)CSc5ccccc5)c(S(=O)(=O)C(F)(F)F)c4)cc3)CC2)C1 [Navitoclax] (partner 0.5 µM)
# How it was run: as §1
# [3] = compound: Cc1ccc2nc(NCCN)c3ncc(C)n3c2c1 + COc1cc2c(Oc3ccc(NC(=O)C4(C(=O)Nc5ccc(F)cc5)CC4)cc3F)ccnc2cc1OCCCN1CCOCC1 [Foretinib] (partner 0.25 µM)
# How it was run: as §1
# [4] = compound: Cc1ccc2nc(NCCN)c3ncc(C)n3c2c1 + Cc1cc(Nc2cc(N3CCN(C)CC3)nc(Sc3ccc(NC(=O)C4CC4)cc3)n2)n[nH]1 [Tozasertib] (partner 0.1 µM)
# How it was run: as §1
cell line,measurement,setting,value
UMC-11,relative viability,[1]; first compound 0.04 µM,0.707
same,relative viability,[1]; first compound 0.1265 µM,0.7
same,relative viability,[1]; first compound 0.4 µM,0.72
same,relative viability,[1]; first compound 1.265 µM,0.703
same,relative viability,[1]; first compound 4 µM,0.632
same,relative viability,[2]; first compound 0.04 µM,0.315
same,relative viability,[2]; first compound 0.1265 µM,0.342
same,relative viability,[2]; first compound 0.4 µM,0.33
same,relative viability,[2]; first compound 1.265 µM,0.324
same,relative viability,[2]; first compound 4 µM,0.365
same,relative viability,[3]; first compound 0.04 µM,1.02
same,relative viability,[3]; first compound 0.1265 µM,0.999
same,relative viability,[3]; first compound 0.4 µM,1.02
same,relative viability,[3]; first compound 1.265 µM,1.01
same,relative viability,[3]; first compound 4 µM,0.945
same,relative viability,[4]; first compound 0.04 µM,0.211
same,relative viability,[4]; first compound 0.1265 µM,0.233
same,relative viability,[4]; first compound 0.4 µM,0.209
same,relative viability,[4]; first compound 1.265 µM,0.205
same,relative viability,[4]; first compound 4 µM,0.194
